Laboratory results taken from patent publication US9676732B2, “Ethynyl derivatives” (Hoffmann-La Roche Inc., priority 2013, dated 2017).

Biological target: human mGlu4 receptor (Homo sapiens (Human), UniProt Q14833)
Assay: Ca2+ mobilization in vitro assay on recombinant human mGlu4 expressed in HEK293 cells (mGlu4 PAM)
Assay type: cell-based
Details: for EC50: HEK293 cells stably expressing human mGlu4, L-AP4 added at EC20, read-out: EC50 (nM) mGlu4PAM; for Eff. (%): maximal response in % of the maximal stimulatory effect obtained with saturating concentrations of L-AP4
Procedure: Determination of EC50 Values Using a Ca2+ Mobilization In Vitro Assay on Recombinant Human mGlu4 Expressed in HEK293 Cells:
A monoclonal HEK-293 cell line stably transfected with a cDNA encoding for the human mGlu4 receptor was generated; for the work with mGlu4 Positive Allosteric Modulators (PAMs), a cell line with low receptor expression levels and low constitutive receptor activity was selected to allow the differentiation of agonistic versus PAM activity. Cells were cultured according to standard protocols (Freshney, 2000) in Dulbecco's Modified Eagle Medium with high glucose supplemented with 1 mM glutamine, 10% (vol/vol) heat-inactivated bovine calf serum, Penicillin/Streptomycin, 50 μg/ml hygromycin and 15 μg/ml blasticidin (all cell culture reagents and antibiotics from Invitrogen, Basel, Switzerland).
About 24 hrs before an experiment, 5×10^4 cells/well were seeded in poly-D-lysine coated, black/clear-bottomed 96-well plates. The cells were loaded with 2.5 μM Fluo-4AM in loading buffer (1×HBSS, 20 mM HEPES) for 1 hr at 37° C. and washed five times with loading buffer. The cells were transferred into a Functional Drug Screening System 7000 (Hamamatsu, Paris, France), and 11 half logarithmic serial dilutions of test compound at 37° C. were added and the cells were incubated for 10-30 min. with on-line recording of fluorescence. Following this pre-incubation step, the agonist (2S)-2-amino-4-phosphonobutanoic acid (L-AP4) was added to the cells at a concentration corresponding to EC20 with on-line recording of fluorescence; in order to account for day-to-day variations in the responsiveness of cells, the EC20 of L-AP4 was determined immediately ahead of each experiment by recording of a full dose-response curve of L-AP4.
Responses were measured as peak increase in fluorescence minus basal (i.e. fluorescence without addition of L-AP4), normalized to the maximal stimulatory effect obtained with saturating concentrations of L-AP4. Graphs were plotted with the % maximal stimulatory using XLfit, a curve fitting program that iteratively plots the data using Levenburg Marquardt algorithm. The single site competition analysis equation used was y=A+((B−A)/(1+((x/C)D))), where y is the % maximal stimulatory effect, A is the minimum y, B is the maximum y, C is the EC50, x is the log 10 of the concentration of the competing compound and D is the slope of the curve (the Hill Coefficient). From these curves the EC50 (drug concentration at which 50% of the maximal receptor activation was achieved), the Hill coefficient as well as the maximal response in % of the maximal stimulatory effect obtained with saturating concentrations of L-AP4 were calculated (see FIG. 1).
A depression of the signal observed after addition of the EC20 concentration of L-AP4 was indicative of an inhibitory activity of the test compound. • FIG. 1: Illustration of the experimental outline for mGlu4 PAM Ca2+ mobilization screening assay and the determination of EC50 and % Emax values.

Chain of human mGlu4 receptor (Q14833 33-912): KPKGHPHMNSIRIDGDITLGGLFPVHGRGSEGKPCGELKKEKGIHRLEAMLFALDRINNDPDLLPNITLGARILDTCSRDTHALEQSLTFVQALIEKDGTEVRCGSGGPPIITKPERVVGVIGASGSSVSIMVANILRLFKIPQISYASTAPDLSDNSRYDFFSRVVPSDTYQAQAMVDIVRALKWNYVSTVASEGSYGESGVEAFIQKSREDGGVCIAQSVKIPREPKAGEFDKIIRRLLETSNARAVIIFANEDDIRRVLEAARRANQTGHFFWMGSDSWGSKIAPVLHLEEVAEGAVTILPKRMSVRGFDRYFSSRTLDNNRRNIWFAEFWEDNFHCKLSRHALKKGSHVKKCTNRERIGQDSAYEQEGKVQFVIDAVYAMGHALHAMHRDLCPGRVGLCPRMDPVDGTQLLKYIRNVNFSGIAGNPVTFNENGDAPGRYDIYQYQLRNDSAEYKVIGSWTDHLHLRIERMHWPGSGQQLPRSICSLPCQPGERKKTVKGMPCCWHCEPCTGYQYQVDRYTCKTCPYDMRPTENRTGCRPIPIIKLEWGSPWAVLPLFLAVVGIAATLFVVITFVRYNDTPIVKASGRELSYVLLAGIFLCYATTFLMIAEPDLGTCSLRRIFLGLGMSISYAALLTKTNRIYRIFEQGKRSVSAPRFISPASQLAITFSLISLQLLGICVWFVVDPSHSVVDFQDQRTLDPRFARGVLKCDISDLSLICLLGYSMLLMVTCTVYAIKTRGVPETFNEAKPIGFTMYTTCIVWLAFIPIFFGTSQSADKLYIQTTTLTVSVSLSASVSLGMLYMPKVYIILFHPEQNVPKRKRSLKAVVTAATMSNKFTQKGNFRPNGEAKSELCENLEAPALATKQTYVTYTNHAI

EC50 [nM]	Eff. (%)	SMILES
141	113	Cc1cccc2c(=O)n(-c3ncc(C#Cc4ccccc4)cc3Cl)c(=O)n(C)c12 [Example 46, 3-[3-Chloro-5-(2-phenylethynyl)-2-pyridyl]-1,8-dimethyl-quinazoline-2,4-dione]
80	106	O=c1c2cccc3c2n(c(=O)n1-c1ccc(C#Cc2ccccc2)cc1Cl)CC3 [Example 12, 2-(2-Chloro-4-(phenylethynyl)phenyl)-5,6-dihydro-1H-pyrrolo[3,2,1-ij]quinazoline-1,3(2H)-dione]
17	107	Cn1c(=O)n(-c2c(F)cc(C#Cc3ccccc3)cc2F)c(=O)c2nsnc21 [Example 39, 6-[2,6-Difluoro-4-(2-phenylethynyl)phenyl]-4-methyl-[1,2,5]thiadiazolo[3,4-d]pyrimidine-5,7-dione]
137	145	Cn1cc2c(=O)n(-c3c(F)cc(C#Cc4ccccc4)cc3F)c(=O)n(C)c2n1 [Example 62, 5-[2,6-Difluoro-4-(2-phenylethynyl)phenyl]-2,7-dimethyl-pyrazolo[3,4-d]pyrimidine-4,6-dione]
155	89	CC(C)n1c(=O)n(-c2c(F)cc(C#Cc3ccccc3)cc2F)c(=O)c2c1cnn2C [Example 36, 6-[2,6-Difluoro-4-(2-phenylethynyl)phenyl]-4-isopropyl-1-methyl-pyrazolo[4,3-d]pyrimidine-5,7-dione]
231	98	Cc1cccc2c1c(=O)n(-c1ccc(C#Cc3ccccc3)cc1Cl)c(=O)n2C [Example 41, 3-[2-Chloro-4-(2-phenylethynyl)phenyl]-1,5-dimethyl-quinazoline-2,4-dione]
93	108	Cc1ccc2c(=O)n(-c3ccc(C#Cc4ccccc4)cc3Cl)c(=O)n(C)c2c1 [Example 5, 3-[2-Chloro-4-(2-phenylethynyl)phenyl]-1,7-dimethyl-quinazoline-2,4-dione]
52	78	O=c1c2cccc3c2n(c(=O)n1-c1c(F)cc(C#Cc2ccccc2)cc1F)CC3 [Example 29, 2-(2,6-Difluoro-4-(phenylethynyl)phenyl)-5,6-dihydro-1H-pyrrolo[3,2,1-ij]quinazoline-1,3(2H)-dione]
766	123	CC(C)n1c(=O)n(-c2ccc(C#Cc3ccccc3)cn2)c(=O)c2ccccc21 [Example 55, 1-Isopropyl-3-[5-(2-phenylethynyl)-2-pyridyl]quinazoline-2,4-dione]
33	104	Cn1c(=O)n(-c2c(F)cc(C#Cc3ccccc3)cc2F)c(=O)c2scnc21 [Example 32, 6-[2,6-Difluoro-4-(2-phenylethynyl)phenyl]-4-methyl-thiazolo[4,5-d]pyrimidine-5,7-dione]
399	180	Cn1c(=O)n(-c2ccc(C#Cc3ccccc3)cc2Cl)c(=O)c2cnccc21 [Example 10, 3-[2-Chloro-4-(2-phenylethynyl)phenyl]-1-methyl-pyrido[4,3-d]pyrimidine-2,4-dione]
83	80	CC(C)n1c(=O)n(-c2c(F)cc(C#Cc3cccnc3)cc2Cl)c(=O)c2ccccc21 [Example 42, 3-[2-Chloro-6-fluoro-4-[2-(3-pyridyl)ethynyl]phenyl]-1-isopropyl-quinazoline-2,4-dione]
150	102	Cn1c(=O)n(-c2ccc(C#Cc3ccccc3)cc2Cl)c(=O)c2ccccc21 [Example 1, 3-[2-Chloro-4-(2-phenylethynyl)phenyl]-1-methyl-quinazoline-2,4-dione]
152	98	O=c1[nH]c2ncncc2c(=O)n1-c1ccc(C#Cc2ccccc2)cc1Cl [Example 16, 3-[2-Chloro-4-(2-phenylethynyl)phenyl]-1H-pyrimido[4,5-d]pyrimidine-2,4-dione]
65	134	CC(C)n1c(=O)n(-c2c(F)cc(C#Cc3cccnc3)cc2F)c(=O)c2nn(C)cc21 [Example 57, 6-[2,6-Difluoro-4-[2-(3-pyridyl)ethynyl]phenyl]-4-isopropyl-2-methyl-pyrazolo[4,3-d]pyrimidine-5,7-dione]
154	197	Cc1cccc2c(=O)n(-c3c(F)cc(C#Cc4cccnc4)cc3F)c(=O)n(C)c12 [Example 73, 3-[2,6-Difluoro-4-[2-(3-pyridyl)ethynyl]phenyl]-1,8-dimethyl-quinazoline-2,4-dione]
52	89	CC(C)n1c(=O)n(-c2ccc(C#Cc3ccccc3)cc2Cl)c(=O)c2nccnc21 [Example 21, 3-[2-Chloro-4-(2-phenylethynyl)phenyl]-1-isopropyl-pteridine-2,4-dione]
32	97	COc1cccc2c(=O)n(-c3ccc(C#Cc4ccccc4)cc3Cl)c(=O)n(C)c12 [Example 65, 3-[2-Chloro-4-(2-phenylethynyl)phenyl]-8-methoxy-1-methyl-quinazoline-2,4-dione]
220	120	Cn1c(=O)n(-c2ccc(C#Cc3ccccc3)cc2Cl)c(=O)c2ccc(Cl)cc21 [Example 4, 7-Chloro-3-[2-chloro-4-(2-phenylethynyl)phenyl]-1-methyl-quinazoline-2,4-dione]
48	225	CC(C)n1c(=O)n(-c2c(F)cc(C#Cc3ccccc3)cc2F)c(=O)c2nccnc21 [Example 68, 3-[2,6-Difluoro-4-(2-phenylethynyl)phenyl]-1-isopropyl-pteridine-2,4-dione]
187	110	O=c1c2cccc3c2n(c(=O)n1-c1ncc(C#Cc2ccccc2)cc1Cl)CC3 [Example 47, 2-(3-Chloro-5-(phenylethynyl)pyridin-2-yl)-5,6-dihydro-1H-pyrrolo[3,2,1-ij]quinazoline-1,3(2H)-dione]
148	86	Cn1c(=O)n(-c2ccc(C#Cc3ccccc3)cc2Cl)c(=O)c2cc(F)ccc21 [Example 18, 3-[2-Chloro-4-(2-phenylethynyl)phenyl]-6-fluoro-1-methyl-quinazoline-2,4-dione]
102	123	O=c1c2ccccc2n(C2CCC2)c(=O)n1-c1ccc(C#Cc2ccccc2)cc1Cl [Example 53, 3-[2-Chloro-4-(2-phenylethynyl)phenyl]-1-cyclobutyl-quinazoline-2,4-dione]
137	93	Cn1c(=O)n(-c2ccc(C#Cc3ccccc3)cc2Cl)c(=O)c2cccc(Cl)c21 [Example 3, 8-Chloro-3-[2-chloro-4-(2-phenylethynyl)phenyl]-1-methyl-quinazoline-2,4-dione]
115	108	Cc1ccc2c(=O)n(-c3c(F)cc(C#Cc4ccccc4)cc3F)c(=O)n(C)c2c1 [Example 26, 3-[2,6-Difluoro-4-(2-phenylethynyl)phenyl]-1,7-dimethyl-quinazoline-2,4-dione]
65	100	CCc1cccc2c(=O)n(-c3ccc(C#Cc4ccccc4)cc3Cl)c(=O)n(C)c12 [Example 8, 3-[2-Chloro-4-(2-phenylethynyl)phenyl]-8-ethyl-1-methyl-quinazoline-2,4-dione]
